Test results published in patent US6617336B1, “2-arylquinoline derivatives, preparation and therapeutic use thereof” (Sanofi-Synthelabo, priority 1999, dated 2003).

SMILES: Cc1cc2cccc([C@H](CO)N3CCCC[C@H]3C)c2nc1-c1ccccc1.Cl
- melting point: 68 °C
